Experimental findings from ChEMBL document CHEMBL4602667, “An NMR-Based Chemometric Strategy to Identify Leishmania donovani Nucleoside Hydrolase Inhibitors from the Brazilian Tree Ormosia arborea” (J Nat Prod, 2020) are described below.

Assay [1] is described as follows: Inhibition of recombinant Leishmania donovani C-terminal His6-tagged Nucleoside hydrolase expressed in Escherichia coli BL21(DE3) cells assessed as reduction in uric acid formation by coupled assay.
A further assay deals with Leishmania donovani. Briefly: Reversible inhibition of recombinant Leishmania donovani C-terminal His6-tagged Nucleoside hydrolase expressed in Escherichia coli BL21(DE3) cells assessed recovery of enzyme activity at 10 times of IC50 preincubated for 20 mins followed by inosine addition by jump dilution experiment based assay.
A short description of assay [2]: Noncompetitive inhibition of recombinant Leishmania donovani C-terminal His6-tagged Nucleoside hydrolase expressed in Escherichia coli BL21(DE3) cells assessed as decrease in Vmax using 0.01 to 3 mM of inosine as substrate preincubated for 20 mins followed by inosine addition.

Activity calls are given as the source filed them. The rule behind the calls is not given here.

In the case of `O=C(/C=C/c1ccc(O)cc1)O[C@@H]1Cc2c(O)cc3c(c2O[C@@H]1c1ccc(O)c(O)c1)[C@H]1c2c(O)cc(O)cc2O[C@@](c2ccc(O)c(O)c2)(O3)[C@@H]1O`, the half-maximal inhibitory concentration (IC50) in assay [1] was found to be 25.6 µM. Also, the inhibition entry with Leishmania donovani is “Active”. Also, in assay [2], the inhibition constant Ki came out at 21.2 µM.
The corresponding values for `O=C(/C=C/c1ccc(O)cc1)O[C@@H]1Cc2c(O)cc3c(c2O[C@@H]1c1ccc(O)c(O)c1)[C@H]1c2c(O)cc(O)cc2O[C@@](c2cc(O)c(O)c(O)c2)(O3)[C@@H]1O` are 28.2 µM, “Active” and 27.9 µM.

As a reminder, the IC50 is the midpoint of a concentration-inhibition curve. A word on the Ki: it is the dissociation constant of the complex between target and ligand, obtained from inhibition or displacement.
